From PubChem BioAssay AID322 (DTP/NCI, 2004)
Values joined by “and” are separate entries in the source; they are usually repeats but may differ in a detail not shown here. Identical values can stand only once. Inconclusive results and toxic doses are left out.

System: CD2F1 mice, P388/ADR leukemia ip, median survival T/C
Assay: NCI In Vivo Anticancer Drug Screen. Data for tumor model P388 Leukemia resistant to Adriamycin; NSC 123127, Developed at Scr 08 (intraperitoneal) in CD2F1 (CDF1) mice
Settings: endpoint: median survival time, higher = longer survival
Procedure: The antitumor activity of compounds was measured in mice bearing transplantable tumors. Survival or tumor size were measured and the results are expressed as the measurement made in the treated group (T) divided by the measurement made in the vehicle treated control group (C). The tumor model used in this assay is P388 Leukemia resistant to Adriamycin; NSC 123127, Developed at Scr 08 (intraperitoneal) in CD2F1 (CDF1) mice

Question: Which results are given for `CN(C)/N=N/c1nc[nH]c1C(N)=O`?
Answer: T/C (dose: 25.0 mg/kg/injection, schedule: Q01DX009 (ip), vehicle: distilled water + Tween-80): 112 % of control; T/C (dose: 50.0 mg/kg/injection, schedule: Q01DX009 (ip), vehicle: distilled water + Tween-80): 124 % of control; T/C (dose: 100.0 mg/kg/injection, schedule: Q01DX009 (ip), vehicle: distilled water + Tween-80): 166 % of control; T/C (dose: 200.0 mg/kg/injection, schedule: Q01DX009 (ip), vehicle: distilled water + Tween-80): 158 % of control and 178 % of control; T/C (dose: 400.0 mg/kg/injection, schedule: Q01DX009 (ip), vehicle: distilled water + Tween-80): 201 % of control and 123 % of control

Question: With `O=[N+]([O-])c1ccc(N(CCO)CCO)c2c1no[n+]2[O-]` as the compound, how does the T/C (dose: 3.12 mg/kg/injection, schedule: Q01DX005 (ip), vehicle: saline with Tween-80) read?
Answer: Its T/C is 114 % of control.

Question: What about the T/C (dose: 6.25 mg/kg/injection, schedule: Q01DX005 (ip), vehicle: saline with Tween-80) of the same compound?
Answer: The T/C was 124 % of control.

Question: Which results are given for `CSC1SCC2C(=O)N(C)C(C(C)C)C(=O)OCC(NC(=O)c3cnc4ccccc4n3)C(=O)NC(C)C(=O)N(C)C1C(=O)N(C)C(C(C)C)C(=O)OCC(NC(=O)c1cnc3ccccc3n1)C(=O)NC(C)C(=O)N2C` (stereo not drawn)?
Answer: T/C (dose: 44.0 micrograms/kg/injection, schedule: Q01DX005 (ip), vehicle: saline): 152 % of control; T/C (dose: 100.0 micrograms/kg/injection, schedule: Q01DX005 (ip), vehicle: saline): 151 % of control; T/C (dose: 150.0 micrograms/kg/injection, schedule: Q01DX005 (ip), vehicle: saline): 152 % of control

Question: For `CCOc1ccc(-c2nc3ccc(-c4nc5ccc(N6CCN(C)CC6)cc5[nH]4)cc3[nH]2)cc1`, which T/C (dose: 1.56 mg/kg/injection, schedule: Q01DX005 (ip), vehicle: water) is on record?
Answer: Its T/C is 109 % of control.

Question: What about the T/C (dose: 3.12 mg/kg/injection, schedule: Q01DX005 (ip), vehicle: water) of the same compound?
Answer: The T/C was 106 % of control.

Question: And the T/C (dose: 6.25 mg/kg/injection, schedule: Q01DX005 (ip), vehicle: water)?
Answer: Its T/C is 107 % of control.

Question: And the T/C (dose: 12.5 mg/kg/injection, schedule: Q01DX005 (ip), vehicle: water)?
Answer: The T/C was 91 % of control.

Question: What does the source list for `O=CC(CO)CC(C=O)n1cnc2c(=O)[nH]cnc21` (stereo not drawn)?
Answer: T/C (dose: 25.0 mg/kg/injection, schedule: Q01DX005 (ip), vehicle: saline): 122 % of control and 124 % of control; T/C (dose: 100.0 mg/kg/injection, schedule: Q01DX005 (ip), vehicle: saline): 151 % of control; T/C (dose: 200.0 mg/kg/injection, schedule: Q01DX005 (ip), vehicle: saline): 160 % of control and 170 % of control; T/C (dose: 400.0 mg/kg/injection, schedule: Q01DX005 (ip), vehicle: saline): 169 % of control and 170 % of control
